Experimental data: patent US20260234161A1, “RIFABUTIN ANALOGS FOR THE TREATMENT OF BACTERIAL DISEASES” (BIOVERSYS AG, priority 2023, published 2026)
≈ marks a conversion by molar mass, not a printed value. Like-named read-outs stand apart in the source and are kept apart here.

Tests used:
Format in all cases: cell-based
[1] = system: S. aureus (UAMS-1625 strain); assay: MIC by broth microdilution, S. aureus; conditions: Staphylococcus aureus, 20 h, read-out: MIC S. aureus
Procedure: (§1) MIC values were determined by broth microdilution method according to the CLSI guidelines with the following exceptions: MIC against A. baumannii was performed in RPMI medium supplemented with 10% FCS and MIC against M. abscessus was performed in Middlebrook 7H9 broth supplemented with Middlebrook ADC growth supplement (10%; see column “M. abscessus 7H9”). MIC forM abscessus was determined a second time in standard cation adjusted Mueller Hinton broth without growth supplement (see colum “M. abscessus MH”). All other MIC were performed in standard cation adjusted Mueller Hinton broth, supplemented with Middlebrook ADC growth supplement (5%) for the slow growing mycobacteria (M. xenopi, M. kansasii and M. avium).
(§2) The following procedure applies to all species tested, except forM xenopi. From a fresh culture plate (from overnight to several days depending on the bacteria), cells were resuspended in 0.9% (w/v) saline solution and bacterial inoculum was prepared in the respective testing medium with 5×10^5 CFU/mL. For M. xenopi, the inoculum was prepared from a fresh liquid culture (7H9+ADC). The appropriate volumes of a 10 mg/mL compound solution were directly dispensed in the 96-well assay plate using a digital dispenser to create two-fold dilution series from 32 to 0.002 μg/mL final concentration for A. baumannii and S. aureus; from 16 to 0.016 μg/mL for M. abscessus and M. avium; and from 1 to 6×10^−5 μg/mL for M. kansasii and M. xenopi. 100 μL of bacterial suspension was finally added to the compounds. Plates were covered and incubated without shaking at 35° C. for 20 hours for A. baumanii and S. aureus; at 30° C. for 4 days for M. abscessus; and at 37° C. for 7 days (at least) for M. kansasii (covered with aluminum foil to avoid light exposure), M. avium and M. xenopi. Every experiment contained an antibiotic as quality control. MIC was determined visually as the lowest concentration of a compound that prevents visible growth of the bacteria.
(§3) The in vitro activity of compounds described herein was determined against S. aureus (UAMS-1625 strain), A. baumannii (HUMC1 strain), M. abscessus (ATCC 19977), M. kansasii (ATCC 12478), M. avium (ATCC 25291), and M. xenopi (ATCC 19250).

[2] = system: A. baumannii (HUMC1 strain); assay: MIC by broth microdilution, A. baumannii (RPMI + 10% FCS); conditions: Acinetobacter baumannii, read-out: MIC A. baumannii
Procedure: as §1, §2, §3

[3] = system: M. abscessus (ATCC 19977); assay: MIC by broth microdilution, M. abscessus in Middlebrook 7H9 broth + ADC; conditions: Mycobacteroides abscessus
Procedure: as §1, §2, §3

[4] = system: M. abscessus (ATCC 19977); assay: MIC by broth microdilution, M. abscessus in cation adjusted Mueller Hinton broth; conditions: Mycobacteroides abscessus
Procedure: as §1, §2, §3

[5] = HUMC1 strain, RPMI medium + 10% FCS, 35° C., 20 hours
[6] = ATCC19977, 96 h, ATCC 19977, Middlebrook 7H9 broth + ADC growth supplement (10%), 30° C., 4 days, read-out: MIC M. abscessus 7H9
[7] = ATCC19977, 96 h, ATCC 19977, cation adjusted Mueller Hinton broth without growth supplement, 30° C., 4 days, read-out: MIC M. abscessus MH

| Structure (SMILES) | MIC [1] [µg/mL] | MIC [2, 5] [µg/mL] | MIC [3, 6] [µg/mL] | MIC [4, 7] [µg/mL] | MIC ([3]; ATCC19977, 7H9 broth, read-out: MIC value against M. abscessus in 7H9 broth) [µg/mL] | MIC ([4]; ATCC19977, Mueller Hinton broth, read-out: MIC value against M. abscessus in Mueller Hinton broth) [µg/mL] | MIC ([2]; 20 h) [µg/mL] | MIC ([4]; ATCC19977, 96 h, read-out: MIC M. abscessus MH) [µg/mL] |
| --- | --- | --- | --- | --- | --- | --- | --- | --- |
| CO[C@H]1/C=C/O[C@@]2(C)Oc3c(C)c(O)c4c(c3C2=O)C2=NC3(CCN(CC(C)C)CC3)NC2=C(NC(=O)/C(C)=C\C=C\[C@H](C)[C@H](O)[C@@H](C)[C@@H](O)[C@@H](C)[C@H](OC(=O)N2CCC(Nc3cccnc3)CC2)[C@@H]1C)C4=O [Compound 5] | 0.125 (≈ 0.124 µM) | 0.004 | 1 | 4 (≈ 3.97 µM) |  |  |  |  |
| CO[C@H]1/C=C/O[C@@]2(C)Oc3c(C)c(O)c4c(c3C2=O)C2=NC3(CCN(CC(C)C)CC3)NC2=C(NC(=O)/C(C)=C\C=C\[C@H](C)[C@H](O)[C@@H](C)[C@@H](O)[C@@H](C)[C@H](OC(C)=O)[C@@H]1C)C4=O [Rifabutin, rifabutin] | 0.016 (≈ 0.0189 µM) | ≤ 0.002 | 8 | 16 (≈ 18.9 µM) | 8 | 16 (≈ 18.9 µM) |  |  |
| COCCN1CCN(C(=O)O[C@H]2[C@H](C)[C@H](O)[C@H](C)[C@@H](O)[C@@H](C)/C=C/C=C(/C)C(=O)NC3=C4NC5(CCN(CC(C)C)CC5)N=C4c4c(c(O)c(C)c5c4C(=O)[C@@](C)(O/C=C/[C@H](OC)[C@H]2C)O5)C3=O)CC1 [Compound 48] | 0.06 (≈ 0.0615 µM) | ≤ 0.016 |  | 1 (≈ 1.03 µM) |  |  |  |  |
| CO[C@H]1/C=C/O[C@@]2(C)Oc3c(C)c(O)c4c(c3C2=O)C2=NC3(CCN(CC(C)C)CC3)NC2=C(NC(=O)/C(C)=C\C=C\[C@H](C)[C@H](O)[C@@H](C)[C@@H](O)[C@@H](C)[C@H](OC(=O)N2CCN(c3nccs3)CC2)[C@@H]1C)C4=O [Compound 57] | 0.06 (≈ 0.06 µM) | 0.03 |  | 0.5 (≈ 0.5 µM) |  |  |  |  |
| CO[C@H]1/C=C/O[C@@]2(C)Oc3c(C)c(O)c4c(c3C2=O)C2=NC3(CCN(CC(C)C)CC3)NC2=C(NC(=O)/C(C)=C\C=C\[C@H](C)[C@H](O)[C@@H](C)[C@@H](O)[C@@H](C)[C@H](OC(=O)N2CCC3CCCCC3C2)[C@@H]1C)C4=O (stereo partly shown) [Compound 64] | 1 (≈ 1.03 µM) | 0.5 |  | 4 (≈ 4.12 µM) |  |  |  |  |
| CO[C@H]1/C=C/O[C@@]2(C)Oc3c(C)c(O)c4c(c3C2=O)C2=NC3(CCN(CC(C)C)CC3)NC2=C(NC(=O)/C(C)=C\C=C\[C@H](C)[C@H](O)[C@@H](C)[C@@H](O)[C@@H](C)[C@H](OC(=O)N2CCN(Cc3ccco3)CC2)[C@@H]1C)C4=O [Compound 55] | 0.125 (≈ 0.125 µM) | ≤ 0.016 |  | 2 (≈ 2.01 µM) |  |  |  |  |
| CO[C@H]1/C=C/O[C@@]2(C)Oc3c(C)c(O)c4c(c3C2=O)C2=NC3(CCN(CC(C)C)CC3)NC2=C(NC(=O)/C(C)=C\C=C\[C@H](C)[C@H](O)[C@@H](C)[C@@H](O)[C@@H](C)[C@H](OC(=O)N2CCN(CCO)CC2)[C@@H]1C)C4=O [Compound 43] | 0.06 (≈ 0.0624 µM) | ≤ 0.016 |  | 8 (≈ 8.32 µM) |  |  |  |  |
| CO[C@H]1/C=C/O[C@@]2(C)Oc3c(C)c(O)c4c(c3C2=O)C2=NC3(CCN(CC(C)C)CC3)NC2=C(NC(=O)/C(C)=C\C=C\[C@H](C)[C@H](O)[C@@H](C)[C@@H](O)[C@@H](C)[C@H](OC(=O)N2C[C@@H]3C[C@H]2CN3CC2CCCCC2)[C@@H]1C)C4=O [Compound 58] | 0.125 (≈ 0.122 µM) | 0.03 |  | 0.125 (≈ 0.122 µM) |  |  |  |  |
| CO[C@H]1/C=C/O[C@@]2(C)Oc3c(C)c(O)c4c(c3C2=O)C2=NC3(CCN(CC(C)C)CC3)NC2=C(NC(=O)/C(C)=C\C=C\[C@H](C)[C@H](O)[C@@H](C)[C@@H](O)[C@@H](C)[C@H](OC(=O)N2CCN(CCC(C)C)CC2)[C@@H]1C)C4=O [Compound 52] | 0.25 (≈ 0.253 µM) | 0.06 |  | 0.125 (≈ 0.127 µM) |  |  |  |  |
| CO[C@H]1/C=C/O[C@@]2(C)Oc3c(C)c(O)c4c(c3C2=O)C2=NC3(CCN(CC(C)C)CC3)NC2=C(NC(=O)/C(C)=C\C=C\[C@H](C)[C@H](O)[C@@H](C)[C@@H](O)[C@@H](C)[C@H](OC(=O)N2CCN(CC(C)(C)C)CC2)[C@@H]1C)C4=O [Compound 49] | 0.5 (≈ 0.506 µM) | 1 |  | 0.125 (≈ 0.127 µM) |  |  |  |  |
| CO[C@H]1/C=C/O[C@@]2(C)Oc3c(C)c(O)c4c(c3C2=O)C2=NC3(CCN(CC(C)C)CC3)NC2=C(NC(=O)/C(C)=C\C=C\[C@H](C)[C@H](O)[C@@H](C)[C@@H](O)[C@@H](C)[C@H](OC(=O)N2CC3(CCN(CC5CCCCC5)CC3)C2)[C@@H]1C)C4=O [Compound 66] | 0.125 (≈ 0.119 µM) | 0.004 |  | 0.125 (≈ 0.119 µM) |  |  |  |  |
| CCCN1CCN(C(=O)O[C@H]2[C@H](C)[C@H](O)[C@H](C)[C@@H](O)[C@@H](C)/C=C/C=C(/C)C(=O)NC3=C4NC5(CCN(CC(C)C)CC5)N=C4c4c(c(O)c(C)c5c4C(=O)[C@@](C)(O/C=C/[C@H](OC)[C@H]2C)O5)C3=O)CC12CC2 [Compound 59] | 0.25 (≈ 0.254 µM) | 0.03 |  | 0.125 (≈ 0.127 µM) |  |  |  |  |
| CO[C@H]1/C=C/O[C@@]2(C)Oc3c(C)c(O)c4c(c3C2=O)C2=NC3(CCN(CC(C)C)CC3)NC2=C(NC(=O)/C(C)=C\C=C\[C@H](C)[C@H](O)[C@@H](C)[C@@H](O)[C@@H](C)[C@H](OC(=O)N2CCOC3(CCN(C)CC3)C2)[C@@H]1C)C4=O [Compound 24] | 0.06 (≈ 0.0599 µM) | ≤ 0.016 |  | 2 (≈ 2 µM) |  |  |  |  |
| CO[C@H]1/C=C/O[C@@]2(C)Oc3c(C)c(O)c4c(c3C2=O)C2=NC3(CCN(CC(C)C)CC3)NC2=C(NC(=O)/C(C)=C\C=C\[C@H](C)[C@H](O)[C@@H](C)[C@@H](O)[C@@H](C)[C@H](OC(=O)N2CCN(Cc3c(C)noc3C)CC2)[C@@H]1C)C4=O [Compound 38] | 0.125 (≈ 0.122 µM) | ≤ 0.016 |  | 1 (≈ 0.974 µM) |  |  |  |  |
| CO[C@H]1/C=C/O[C@@]2(C)Oc3c(C)c(O)c4c(c3C2=O)C2=NC3(CCN(CC(C)C)CC3)NC2=C(NC(=O)/C(C)=C\C=C\[C@H](C)[C@H](O)[C@@H](C)[C@@H](O)[C@@H](C)[C@H](OC(=O)NC2CCN(C3CCOCC3)CC2)[C@@H]1C)C4=O [Compound 78] | 0.06 (≈ 0.0591 µM) |  |  |  |  |  | ≤ 0.001 | 2 (≈ 1.97 µM) |
| CCN1CCC(NC(=O)O[C@H]2[C@H](C)[C@H](O)[C@H](C)[C@@H](O)[C@@H](C)/C=C/C=C(/C)C(=O)NC3=C4NC5(CCN(CC(C)C)CC5)N=C4c4c(c(O)c(C)c5c4C(=O)[C@@](C)(O/C=C/[C@H](OC)[C@H]2C)O5)C3=O)CC1 [Compound 74] | 0.03 (≈ 0.0313 µM) | ≤ 0.001 |  | 2 (≈ 2.09 µM) |  |  |  |  |
| CO[C@H]1/C=C/O[C@@]2(C)Oc3c(C)c(O)c4c(c3C2=O)C2=NC3(CCN(CC(C)C)CC3)NC2=C(NC(=O)/C(C)=C\C=C\[C@H](C)[C@H](O)[C@@H](C)[C@@H](O)[C@@H](C)[C@H](OC(=O)N(C)C(C)C)[C@@H]1C)C4=O [Compound 83] | 0.125 (≈ 0.138 µM) | 0.016 |  | 2 (≈ 2.21 µM) |  |  |  |  |
| CO[C@H]1/C=C/O[C@@]2(C)Oc3c(C)c(O)c4c(c3C2=O)C2=NC3(CCN(CC(C)C)CC3)NC2=C(NC(=O)/C(C)=C\C=C\[C@H](C)[C@H](O)[C@@H](C)[C@@H](O)[C@@H](C)[C@H](OC(=O)NC2CCN(C(C)C)CC2)[C@@H]1C)C4=O [Compound 76] | 0.03 (≈ 0.0308 µM) | ≤ 0.001 |  | 2 (≈ 2.06 µM) |  |  |  |  |
| CO[C@H]1/C=C/O[C@@]2(C)Oc3c(C)c(O)c4c(c3C2=O)C2=NC3(CCN(CC(C)C)CC3)NC2=C(NC(=O)/C(C)=C\C=C\[C@H](C)[C@H](O)[C@@H](C)[C@@H](O)[C@@H](C)[C@H](OC(=O)N2CCC(N3CCCC3)CC2)[C@@H]1C)C4=O [Compound 62] | 0.06 (≈ 0.0609 µM) | ≤ 0.016 |  | 1 (≈ 1.01 µM) |  |  |  |  |
| CO[C@H]1/C=C/O[C@@]2(C)Oc3c(C)c(O)c4c(c3C2=O)C2=NC3(CCN(CC(C)C)CC3)NC2=C(NC(=O)/C(C)=C\C=C\[C@H](C)[C@H](O)[C@@H](C)[C@@H](O)[C@@H](C)[C@H](OC(=O)N2CCN(CC(C)C)CC2)[C@@H]1C)C4=O [Compound 54] | 0.125 (≈ 0.128 µM) | 0.03 |  | 0.06 (≈ 0.0617 µM) |  |  |  |  |
| CO[C@H]1/C=C/O[C@@]2(C)Oc3c(C)c(O)c4c(c3C2=O)C2=NC3(CCN(CC(C)C)CC3)NC2=C(NC(=O)/C(C)=C\C=C\[C@H](C)[C@H](O)[C@@H](C)[C@@H](O)[C@@H](C)[C@H](OC(=O)N2CCN(CCOCCO)CC2)[C@@H]1C)C4=O [Compound 44] | 0.03 (≈ 0.0298 µM) | ≤ 0.016 |  | 4 (≈ 3.98 µM) |  |  |  |  |
